biological target: human capsaicin receptor (VR1) (Homo sapiens, UniProt Q8NER1); experiment: Capsaicin receptor binding assay ([3H]RTX competition, VR1-transfected HEK293 membranes)
Sequence (Q8NER1 whole entry): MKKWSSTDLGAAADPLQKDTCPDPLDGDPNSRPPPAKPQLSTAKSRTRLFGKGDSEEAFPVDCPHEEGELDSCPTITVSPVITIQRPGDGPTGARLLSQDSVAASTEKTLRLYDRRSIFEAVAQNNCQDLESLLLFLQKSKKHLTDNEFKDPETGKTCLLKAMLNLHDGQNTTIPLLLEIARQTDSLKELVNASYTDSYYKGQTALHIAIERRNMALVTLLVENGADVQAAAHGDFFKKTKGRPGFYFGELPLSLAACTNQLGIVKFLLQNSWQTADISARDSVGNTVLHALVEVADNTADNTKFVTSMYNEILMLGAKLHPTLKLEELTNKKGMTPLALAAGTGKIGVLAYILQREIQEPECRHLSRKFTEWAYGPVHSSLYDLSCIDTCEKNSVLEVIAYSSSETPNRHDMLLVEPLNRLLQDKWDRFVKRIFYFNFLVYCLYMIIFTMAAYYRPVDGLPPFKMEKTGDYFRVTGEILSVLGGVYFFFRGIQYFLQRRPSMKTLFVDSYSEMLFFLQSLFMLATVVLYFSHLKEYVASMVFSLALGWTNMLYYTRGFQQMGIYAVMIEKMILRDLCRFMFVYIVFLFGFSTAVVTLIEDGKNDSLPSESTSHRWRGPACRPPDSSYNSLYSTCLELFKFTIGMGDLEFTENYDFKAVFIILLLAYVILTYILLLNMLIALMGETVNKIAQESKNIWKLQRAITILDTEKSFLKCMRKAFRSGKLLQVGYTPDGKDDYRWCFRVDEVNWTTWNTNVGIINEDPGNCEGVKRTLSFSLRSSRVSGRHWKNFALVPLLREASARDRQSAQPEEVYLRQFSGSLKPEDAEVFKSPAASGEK

Ki, < 1000 nM:
COCc1nc(Nc2ccc(C(C)(C)C(C)=O)cc2)c2ccc(-c3ncccc3Cl)nc2n1 [Compound 213, 3-{4-[7-(3-Chloro-pyridin-2-yl)-2-methoxymethyl-pyrido[2,3-d]pyrimidin-4-ylamino]-phenyl}-3-methyl-butan-2-one]
CC(C)COCc1nc(Nc2ccc(S(C)(=O)=O)cc2)c2ccc(-c3ncccc3C(F)(F)F)nc2n1 [Compound 214, [2-Isobutoxymethyl-7-(3-trifluoromethyl-pyridin-2-yl)-pyrido[2,3-d]pyrimidin-4-yl]-(4-methanesulfonyl-phenyl)-amine]
COCC(C)(C)c1ccc(Nc2nc(COCC(C)C)nc3nc(-c4ncccc4C)ccc23)cc1 [Compound 215, [2-Isobutoxymethyl-7-(3-methyl-pyridin-2-yl)-pyrido[2,3-d]pyrimidin-4-yl]-[4-(2-methoxy-1,1-dimethyl-ethyl)-phenyl]-amine]
Cc1cccnc1-c1ccc2c(Nc3ccc(S(C)(=O)=O)cc3)nc(COCC(C)C)nc2n1 [Compound 216, [2-Isobutoxymethyl-7-(3-methyl-pyridin-2-yl)-pyrido[2,3-d]pyrimidin-4-yl]-(4-methanesulfonyl-phenyl)-amine]
CC(C)(C)c1ccc(Nc2nc(C(C)(C)CO)nc3cc(-c4ncccc4C(F)(F)F)ccc23)cc1 [Compound 217, 2-[4-(4-tert-Butyl-phenylamino)-7-(3-trifluoromethyl-pyridin-2-yl)-quinazolin-2-yl]-2-methyl-propan-1-ol]
CC(C)(CO)c1nc(Nc2ccc(C(F)(F)F)cc2)c2ccc(-c3ncccc3C(F)(F)F)cc2n1 [Compound 218, 2-Methyl-2-[4-(4-trifluoromethyl-phenylamino)-7-(3-trifluoromethyl-pyridin-2-yl)-quinazolin-2-yl]-propan-1-ol]
CCOC(=O)c1nc(Nc2ccc(C(C)(C)C)cc2)c2ccc(-c3ncccc3C(F)(F)F)nc2n1 [Compound 219, 4-(4-tert-Butyl-phenylamino)-7-(3-trifluoromethyl-pyridin-2-yl)-pyrido[2,3-d]pyrimidine-2-carboxylic acid ethyl ester]
CC(C)(C)c1ccc(Nc2nc(C(=O)O)nc3nc(-c4ncccc4C(F)(F)F)ccc23)cc1 [Compound 220, 4-(4-tert-Butyl-phenylamino)-7-(3-trifluoromethyl-pyridin-2-yl)-pyrido[2,3-d]pyrimidine-2-carboxylic acid]
CCN(CC)C(=O)C(C)(C)c1ccc(Nc2nc(COC)nc3nc(-c4ncccc4C(F)(F)F)ccc23)cc1 [Compound 221, N,N-Diethyl-2-{4-[2-methoxymethyl-7-(3-trifluoromethyl-pyridin-2-yl)-pyrido[2,3-d]pyrimidin-4-ylamino]-phenyl}-isobutyramide]
CCN(CC)C(=O)C(C)(C)c1ccc(Nc2nc(COCC(C)C)nc3nc(-c4ncccc4C)ccc23)cc1 [Compound 222, N,N-Diethyl-2-{4-[2-isobutoxymethyl-7-(3-methyl-pyridin-2-yl)-pyrido[2,3-d]pyrimidin-4-ylamino]-phenyl}-isobutyramide]
CCOCc1nc(Nc2ccc(C(F)(F)F)cc2)c2ccc(-c3ncccc3C(F)(F)F)nc2n1 [Compound 223, [2-Ethoxymethyl-7-(3-trifluoromethyl-pyridin-2-yl)-pyrido[2,3-d]pyrimidin-4-yl]-(4-trifluoromethyl-phenyl)-amine]
CCOCc1nc(Nc2ccc(C(F)(F)F)nc2)c2ccc(-c3ncccc3C(F)(F)F)nc2n1 [Compound 224, [2-Ethoxymethyl-7-(3-trifluoromethyl-pyridin-2-yl)-pyrido[2,3-d]pyrimidin-4-yl]-(6-trifluoromethyl-pyridin-3-yl)-amine]
CCOCc1nc(Nc2ccc(C(C)(C)C#N)cc2)c2ccc(-c3ncccc3C(F)(F)F)nc2n1 [Compound 225, 2-{4-[2-Ethoxymethyl-7-(3-trifluoromethyl-pyridin-2-yl)-pyrido[2,3-d]pyrimidin-4-ylamino]-phenyl}-2-methyl-propionitrile]
CC(C)COCc1nc(Nc2ccc(S(C)(=O)=O)cc2)c2ccc(-c3ncccc3Cl)nc2n1 [Compound 226, [7-(3-Chloro-pyridin-2-yl)-2-isobutoxymethyl-pyrido[2,3-d]pyrimidin-4-yl]-(4-methanesulfonyl-phenyl)-amine]
CCN(CC)CC(C)(C)c1ccc(Nc2nc(COC)nc3nc(-c4ncccc4C)ccc23)cc1 [Compound 227, [4-(2-Diethylamino-1,1-dimethyl-ethyl)-phenyl]-[2-methoxymethyl-7-(3-methyl-pyridin-2-yl)-pyrido[2,3-d]pyrimidin-4-yl]-amine]
COC(=O)[C@@H](OCc1nc(Nc2ccc(C(C)(C)C)cc2)c2ccc(-c3ncccc3C(F)(F)F)cc2n1)C(C)C [Compound 228, 2-[4-(4-tert-Butyl-phenylamino)-7-(3-trifluoromethyl-pyridin-2-yl)-quinazolin-2-ylmethoxy]-3-methyl-butyric acid methyl ester (S)]
C[C@@H](OCc1nc(Nc2ccc(C(C)(C)C)cc2)c2ccc(-c3ncccc3C(F)(F)F)cc2n1)C(=O)O [Compound 229, (R)-2-[4-(4-tert-Butyl-phenylamino)-7-(3-trifluoromethyl-pyridin-2-yl)-quinazolin-2-ylmethoxy]-propionic acid (chiral)]
CC(C)[C@H](OCc1nc(Nc2ccc(C(C)(C)C)cc2)c2ccc(-c3ncccc3C(F)(F)F)cc2n1)C(=O)O [Compound 230, (S)-2-[4-(4-tert-Butyl-phenylamino)-7-(3-trifluoromethyl-pyridin-2-yl)-quinazolin-2-ylmethoxy]-3-methyl-butyric acid]
CCOCc1nc(Nc2ccc(C(C)C(F)(F)F)cc2)c2ccc(-c3ncccc3C(F)(F)F)nc2n1 (stereo not shown) [Compound 231, [2-Ethoxymethyl-7-(3-trifluoromethyl-pyridin-2-yl)-pyrido[2,3-d]pyrimidin-4-yl]-[4-(2,2,2-trifluoro-1-methyl-ethyl)-phenyl]-amine]
CC(C)COCc1nc(Nc2ccc(C(C)C(F)(F)F)cc2)c2ccc(-c3ncccc3C(F)(F)F)nc2n1 (stereo not shown) [Compound 232, [2-Isobutoxymethyl-7-(3-trifluoromethyl-pyridin-2-yl)-pyrido[2,3-d]pyrimidin-4-yl]-[4-(2,2,2-trifluoro-1-methyl-ethyl)-phenyl]-amine]
CC(C)COCc1nc(Nc2ccc(C(C)C(F)(F)F)cc2)c2ccc(-c3ncccc3Cl)nc2n1 (stereo not shown) [Compound 233, [7-(3-Chloro-pyridin-2-yl)-2-isobutoxymethyl-pyrido[2,3-d]pyrimidin-4-yl]-[4-(2,2,2-trifluoro-1-methyl-ethyl)-phenyl]-amine]
CC(C)[C@@H](OCc1nc(Nc2ccc(C(C)(C)C)cc2)c2ccc(-c3ncccc3C(F)(F)F)cc2n1)C(=O)O [Compound 234, 2-[4-(4-tert-Butyl-phenylamino)-7-(3-trifluoromethyl-pyridin-2-yl)-quinazolin-2-ylmethoxy]-3-methyl-butyric acid (R)]

Source: US20040156869A1, “2-substituted quinazolin-4-ylamine analogues” (Neurogen Corporation, priority 2002, published 2004)
